Results reported in patent EP1792623B1, “Use of extracts and constituents of leontopodium as enhancers of cholinergic function” (Leopold-Franzens-Universität Innsbruck, priority 2005, dated 2007).

Tests used:
acetylcholinesterase = type: biochemical; conditions: c = 100 mM, after 60 min, in comparison to medium control
Protocol: Experiments are carried out applying Ellman's method in a 96-well microplate assay described by Ingkaninan et al, Journal of Chromatography A 827 (2000) p. 6173 and Rhee et al, Journal of Chromatography A 915 (2001) p. 217-223. In addition to buffer A described above, a buffer containing 0.1 M NaCl and 0.02 M MgClx2.6 H2O in buffer A is used for preparing a 3 mM solution of DTNB. For the microplate assay the substrate ATCI is dissolved 15 mM in water (HPLC grade). The enzyme stock solution is diluted with buffer A to get 0.22 U/ml. In the 96-well plates, 25 µl of 15 mM ATCl, 125 µl of 3 mM DTNB, 50 µl of buffer A, and 25 µl of sample (10 mM in MeOH, respectively DMSO (dimethylsulfoxide), diluted ten times with buffer A) are added. […] […] The absorbance of the product (2-nitrobenzoate-5-mercapto thioline) is measured at 405 nm with a Chameleon 5025 (Hidex, Finland) microplate reader 0, 15, 30, 45 and 60 minutes after adding 25 µl of 0.22 U/ml acetylcholinesterase-solution to the reaction mixture. All experiments are performed 4 times (n=4) and the data are statistically processed using the SPSS 11.5 program package. Percentage of inhibition is calculated by comparing the rates for the sample to the blank (10% MeOH, resp. DMSO, in buffer).

[1] = tested on: release of ACh in rat brain; test: ACh release in nucleus accumbens, push-pull technique, after i.c.v. application; type: in vivo, Sprague-Dawley rats; conditions: 2 µmol i.c.v.
From the text: Surgery and push-pull technique: Protocols of experiments were approved by the Bundesministerium für Wissenschaft, Forschung and Kunst, Austria, Kommission für Tierversuchsangelegenheitem. Sprague-Dawley rats (250-280 g) were anaesthetized with urethane 1.2 g/kg. i.p. The head was fixed in a stereotaxic frame and a push-pull cannula (outer tubing: o.d. 0.75 mm, i.d. 0.41 mm; inner tubing: o.d. 0.26 mm, i.d. 0.13 mm) was mounted on a microdrive. This was stereotaxically inserted through a hole in the skull into the nucleus accumbens (coordinates, mm from bregma: AP, +1.2, L, +2.5; V, -7.8) (Paxinos G. Watson H. (1998) The rat brain in stereotaxic coordinates, 4th edn. Academic Press, Sidney.). […] After 1 h of the cannula insertion the samples were collected into tubes kept at -20° C in time periods of 10 min and then stored at -80°C until acetylcholine (ACh) was determined. […]
Determination of acetylcholine (ACh): ACh content in the samples was determined by HPLC with a cation-exchanging analytical column and a post-column reactor followed by electrochemical detection (Damsma et al, 1997; Prast et al; 1998). […] The peroxide was electrochemically detected by a UniJet platin electrode (3mm) at +500 mV with an amperometric detector (BAS LC-4, Bioanalytical Systems, West Lafayette, IN, USA). […] ACh was quantified with external standards that were injected at the beginning and the end of the analysis. […]

14-acetoxy-isocomene
inhibition (%) (acetylcholinesterase): 1.4 ± 8.1% | release of ACh in rat brain [1]: significantly enhance the concentration of neurotransmitters in the CNS
